From ChEMBL document CHEMBL4411307, “N,N'-diaryl-bishydrazones in a biphenyl platform: Broad spectrum antifungal agents” (Eur J Med Chem, 2019)
In brackets after ≈: the same amount, converted by molar mass. Activity calls are given as the source filed them. The rule behind the calls is not given here.

Key:
[1] = test system: Aspergillus terreus; assay: Antifungal activity against Aspergillus terreus ATCC MYA-3633 measured after 48 hrs by CLSI M38-A2 protocol based method; type: functional; conditions: ATCC MYA-3633, 48 h
[2] = Hemolytic activity in mouse RBC at 62.5 ug/ml after 1 hr relative to control; type: ADME, cell-based, Erythrocyte; conditions: red blood cells (erythrocytes), read-out: Activity
[3] = test system: Candida albicans; assay: Antifungal activity against fluconazole/ITC-resistant Candida albicans ATCC 90819 measured after 48 hrs by CLSI M27-A3 protocol based method; type: functional; conditions: ATCC 90819, 48 h
[4] = Selectivity index, ratio of compound concentration showing <20 to <30% hemolysis in mouse RBC to MIC for fluconazole/ITC-resistant Candida albicans ATCC 10231; type: toxicity; conditions: red blood cells (erythrocytes), read-out: Selectivity Index
[5] = Selectivity index, ratio of CC50 for human A549 cells to MIC for fluconazole/ITC-resistant Candida albicans ATCC 10231; type: toxicity; conditions: read-out: Selectivity Index
[6] = test system: Candida albicans; assay: Antifungal activity against fluconazole/ITC-resistant Candida albicans ATCC MYA-1237 measured after 48 hrs by CLSI M27-A3 protocol based method; type: functional; conditions: ATCC MYA-1237, 48 h
[7] = Hemolytic activity in mouse RBC at […] ug/ml after 1 hr relative to control; type: ADME, cell-based, Erythrocyte; conditions: red blood cells (erythrocytes), read-out: Activity
[8] = Selectivity index, ratio of compound concentration showing <20 to <30% hemolysis in mouse RBC to MIC for fluconazole/ITC-susceptible Candida albicans ATCC MYA-2876; type: toxicity; conditions: red blood cells (erythrocytes), read-out: Selectivity Index
[9] = test system: Nakaseomyces glabratus; assay: Antifungal activity against Candida glabrata ATCC 2001 measured after 48 hrs by CLSI M27-A3 protocol based method; type: functional; conditions: CBS 138, 48 h
[10] = Selectivity index, ratio of compound concentration showing <20 to <30% hemolysis in mouse RBC to MIC for fluconazole/ITC-resistant Candida albicans ATCC MYA-1003; type: toxicity; conditions: mouse red blood cells (RBC), read-out: Selectivity Index
[11] = Selectivity index, ratio of compound concentration showing <20 to <30% hemolysis in mouse RBC to MIC for Aspergillus nidulans ATCC 38163; type: toxicity; conditions: mouse red blood cells (RBC), read-out: Selectivity Index
[12] = Selectivity index, ratio of CC50 for human A549 cells to MIC for Aspergillus nidulans ATCC 38163; type: toxicity; conditions: read-out: Selectivity Index
[13] = Selectivity index, ratio of compound concentration showing <20 to <30% hemolysis in mouse RBC to MIC for Candida krusei ATCC 6258; type: toxicity; conditions: mouse red blood cells (RBC), read-out: Selectivity Index
[14] = test system: Candida albicans; assay: Antifungal activity against fluconazole/ITC-susceptible Candida albicans ATCC MYA-2876 measured after 48 hrs by CLSI M27-A3 protocol based method; type: functional; conditions: ATCC MYA-2876, 48 h
[15] = Selectivity index, ratio of compound concentration showing <20 to <30% hemolysis in mouse RBC to MIC for Candida glabrata ATCC 2001; type: toxicity; conditions: mouse red blood cells (RBC), read-out: Selectivity Index
[16] = Selectivity index, ratio of CC50 for human A549 cells to MIC for Aspergillus terreus ATCC MYA-3633; type: toxicity; conditions: read-out: Selectivity Index
[17] = test system: Candida albicans; assay: Antifungal activity against fluconazole/ITC-susceptible Candida albicans ATCC MYA-2310 measured after 48 hrs by CLSI M27-A3 protocol based method; type: functional; conditions: ATCC MYA-2310, 48 h
[18] = Selectivity index, ratio of compound concentration showing <20 to <30% hemolysis in mouse RBC to MIC for Aspergillus flavus ATCC MYA-3631; type: toxicity; conditions: mouse red blood cells (RBC), read-out: Selectivity Index
[19] = Hemolytic activity in mouse RBC at 1.95 ug/ml after 1 hr relative to control; type: ADME, cell-based, Erythrocyte; conditions: red blood cells (erythrocytes), read-out: Activity
[20] = Selectivity index, ratio of compound concentration showing <20 to <30% hemolysis in mouse RBC to MIC for fluconazole/ITC-resistant Candida albicans ATCC 64124; type: toxicity; conditions: red blood cells (erythrocytes), read-out: Selectivity Index
[21] = Selectivity index, ratio of CC50 for human A549 cells to MIC for fluconazole/ITC-resistant Candida albicans ATCC MYA-1237; type: toxicity; conditions: read-out: Selectivity Index
[22] = test system: Candida albicans; assay: Antifungal activity against fluconazole/ITC-resistant Candida albicans ATCC 10231 measured after 48 hrs by CLSI M27-A3 protocol based method; type: functional; conditions: ATCC 10231, 48 h
[23] = test system: Aspergillus flavus; assay: Antifungal activity against Aspergillus flavus ATCC MYA-3631 measured after 48 hrs by CLSI M38-A2 protocol based method; type: functional; conditions: ATCC MYA-3631, 48 h
[24] = Selectivity index, ratio of CC50 for human A549 cells to MIC for fluconazole/ITC-resistant Candida albicans ATCC MYA-1003; type: toxicity; conditions: read-out: Selectivity Index
[25] = test system: Candida parapsilosis; assay: Antifungal activity against Candida parapsilosis ATCC 22019 measured after 48 hrs by CLSI M27-A3 protocol based method; type: functional; conditions: Lodderomyces parapsilosis, ATCC 22019, 48 h
[26] = test system: Candida albicans; assay: Antifungal activity against fluconazole/ITC-resistant Candida albicans ATCC 64124 measured after 48 hrs by CLSI M27-A3 protocol based method; type: functional; conditions: ATCC 64124, 48 h
[27] = test system: A549; assay: Cytotoxicity against human A549 cells after 24 hrs by resazurin based assay; type: cell-based; conditions: a549, 24 h
[28] = Hemolytic activity in mouse RBC at 3.9 ug/ml after 1 hr relative to control; type: ADME, cell-based, Erythrocyte; conditions: red blood cells (erythrocytes), read-out: Activity
[29] = Hemolytic activity in mouse RBC at […] after 1 hr relative to control; type: ADME, cell-based, Erythrocyte; conditions: red blood cells (erythrocytes), read-out: Activity; also: tested at 0.48 µg/mL
[30] = Selectivity index, ratio of compound concentration showing <20 to <30% hemolysis in mouse RBC to MIC for fluconazole/ITC-susceptible Candida albicans ATCC MYA-2310; type: toxicity; conditions: mouse red blood cells (RBC), read-out: Selectivity Index
[31] = Hemolytic activity in mouse RBC at 31.3 ug/ml after 1 hr relative to control; type: ADME, cell-based, Erythrocyte; conditions: red blood cells (erythrocytes), read-out: Activity
[32] = Selectivity index, ratio of CC50 for human A549 cells to MIC for Candida krusei ATCC 6258; type: toxicity; conditions: read-out: Selectivity Index
[33] = Selectivity index, ratio of CC50 for human A549 cells to MIC for fluconazole/ITC-resistant Candida albicans ATCC 64124; type: toxicity; conditions: read-out: Selectivity Index
[34] = Selectivity index, ratio of CC50 for human A549 cells to MIC for Candida glabrata ATCC 2001; type: toxicity; conditions: read-out: Selectivity Index
[35] = Selectivity index, ratio of CC50 for human A549 cells to MIC for fluconazole/ITC-susceptible Candida albicans ATCC MYA-2876; type: toxicity; conditions: read-out: Selectivity Index
[36] = test system: Pichia kudriavzevii; assay: Antifungal activity against Candida krusei ATCC 6258 measured after 48 hrs by CLSI M27-A3 protocol based method; type: functional; conditions: ATCC 6258, 48 h
[37] = test system: Staphylococcus aureus; assay: Antibacterial activity against methicillin-resistant Staphylococcus aureus; type: functional, organism-based
[38] = test system: BEAS-2B; assay: Cytotoxicity against human BEAS2B cells after 24 hrs by resazurin based assay; type: cell-based
[39] = test system: Listeria monocytogenes; assay: Antibacterial activity against Listeria monocytogenes; type: functional, organism-based
[40] = Selectivity index, ratio of CC50 for human A549 cells to MIC for Aspergillus flavus ATCC MYA-3631; type: toxicity; conditions: read-out: Selectivity Index
[41] = Selectivity index, ratio of compound concentration showing <20 to <30% hemolysis in mouse RBC to MIC for fluconazole/ITC-resistant Candida albicans ATCC 90819; type: toxicity; conditions: red blood cells (erythrocytes), read-out: Selectivity Index
[42] = test system: Aspergillus nidulans; assay: Antifungal activity against Aspergillus nidulans ATCC 38163 measured after 48 hrs by CLSI M38-A2 protocol based method; type: functional; conditions: ATCC 38163, 48 h
[43] = Selectivity index, ratio of CC50 for human A549 cells to MIC for fluconazole/ITC-resistant Candida albicans ATCC 90819; type: toxicity; conditions: read-out: Selectivity Index
[44] = Selectivity index, ratio of compound concentration showing <20 to <30% hemolysis in mouse RBC to MIC for fluconazole/ITC-resistant Candida albicans ATCC MYA-1237; type: toxicity; conditions: mouse red blood cells (RBC), read-out: Selectivity Index
[45] = test system: Candida albicans; assay: Antifungal activity against fluconazole/ITC-resistant Candida albicans ATCC MYA-1003 measured after 48 hrs by CLSI M27-A3 protocol based method; type: functional; conditions: ATCC MYA-1003, 48 h
[46] = Selectivity index, ratio of CC50 for human A549 cells to MIC for Candida parapsilosis ATCC 22019; type: toxicity; conditions: read-out: Selectivity Index
[47] = Selectivity index, ratio of compound concentration showing <20 to <30% hemolysis in mouse RBC to MIC for Candida parapsilosis ATCC 22019; type: toxicity; conditions: mouse red blood cells (RBC), read-out: Selectivity Index
[48] = test system: Enterococcus; assay: Antibacterial activity against vancomycin-resistant Enterococcus; type: functional, organism-based
[49] = Selectivity index, ratio of compound concentration showing <20 to <30% hemolysis in mouse RBC to MIC for Aspergillus terreus ATCC MYA-3633; type: toxicity; conditions: mouse red blood cells (RBC), read-out: Selectivity Index
[50] = target: Voltage-gated inwardly rectifying potassium channel KCNH2 (Homo sapiens, UniProt Q12809); assay: Inhibition of [3H]-dofetilide binding to human ERG expressed in HEK293 cell membranes measured after 1 hr by liquid scintillation counting method
Chain of Voltage-gated inwardly rectifying potassium channel KCNH2 (Q12809 whole entry): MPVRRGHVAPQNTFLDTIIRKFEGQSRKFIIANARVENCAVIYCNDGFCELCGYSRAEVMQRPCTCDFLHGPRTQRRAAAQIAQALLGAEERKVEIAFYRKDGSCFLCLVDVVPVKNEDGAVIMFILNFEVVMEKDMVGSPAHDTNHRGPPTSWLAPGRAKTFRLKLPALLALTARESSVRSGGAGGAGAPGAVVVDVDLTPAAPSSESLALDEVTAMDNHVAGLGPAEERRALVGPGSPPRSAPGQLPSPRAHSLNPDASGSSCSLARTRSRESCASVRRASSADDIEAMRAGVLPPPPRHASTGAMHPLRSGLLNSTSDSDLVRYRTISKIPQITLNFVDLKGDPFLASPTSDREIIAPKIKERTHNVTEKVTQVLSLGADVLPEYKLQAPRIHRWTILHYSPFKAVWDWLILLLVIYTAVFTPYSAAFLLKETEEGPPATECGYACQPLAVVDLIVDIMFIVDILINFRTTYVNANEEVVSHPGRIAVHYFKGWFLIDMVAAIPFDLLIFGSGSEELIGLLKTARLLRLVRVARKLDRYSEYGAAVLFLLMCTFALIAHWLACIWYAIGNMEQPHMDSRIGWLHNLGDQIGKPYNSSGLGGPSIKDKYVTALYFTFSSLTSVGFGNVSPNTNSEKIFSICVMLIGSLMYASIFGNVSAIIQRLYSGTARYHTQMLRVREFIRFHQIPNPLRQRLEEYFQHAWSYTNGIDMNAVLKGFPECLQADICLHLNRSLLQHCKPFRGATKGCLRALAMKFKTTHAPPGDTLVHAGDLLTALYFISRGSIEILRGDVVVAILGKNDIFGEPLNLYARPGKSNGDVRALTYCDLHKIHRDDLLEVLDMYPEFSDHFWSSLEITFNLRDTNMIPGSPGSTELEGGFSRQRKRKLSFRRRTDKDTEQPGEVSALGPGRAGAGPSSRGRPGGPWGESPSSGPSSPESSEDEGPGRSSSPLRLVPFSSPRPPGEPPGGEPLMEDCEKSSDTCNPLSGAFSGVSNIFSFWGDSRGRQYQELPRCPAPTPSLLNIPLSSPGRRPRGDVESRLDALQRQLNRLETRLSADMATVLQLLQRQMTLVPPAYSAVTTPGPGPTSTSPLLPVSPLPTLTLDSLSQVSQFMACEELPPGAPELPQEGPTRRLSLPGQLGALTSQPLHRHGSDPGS

[51] = Selectivity index, ratio of CC50 for human A549 cells to MIC for fluconazole/ITC-susceptible Candida albicans ATCC MYA-2310; type: toxicity; conditions: read-out: Selectivity Index
[52] = Hemolytic activity in mouse RBC at 7.8 ug/ml after 1 hr relative to control; type: ADME, cell-based, Erythrocyte; conditions: red blood cells (erythrocytes), read-out: Activity

COc1ccc(N/N=C/c2ccc(-c3ccc(/C=N/Nc4ccc(OC)cc4)cc3)cc2)cc1
MIC [1]: > 31.3 µg/mL
hemolysis at 1 h, 62.5 ug/ml [2]: 22.7%
MIC [3]: 7.8 µg/mL (≈ 17.3 µM)
selectivity ratio [4]: 1 to 32
selectivity ratio [5]: 4
MIC [6]: 15.6 µg/mL (≈ 34.6 µM)
hemolysis at 1 h, 15.6 ug/ml ([7]; at 15.6 µg/mL): 6.7%
hemolysis at 1 h, 0.975 ug/ml [7]: 1.6%
selectivity ratio [8]: 1 to 32
MIC [9]: 7.8 µg/mL (≈ 17.3 µM)
selectivity ratio [10]: 1 to 32
selectivity ratio [11]: 1 to 32
selectivity ratio [12]: 4
selectivity ratio [13]: 1 to 32
MIC [14]: 7.8 µg/mL (≈ 17.3 µM)
selectivity ratio [15]: 1 to 32
selectivity ratio [16]: 1
MIC [17]: 3.9 µg/mL (≈ 8.66 µM)
selectivity ratio [18]: 1 to 32
hemolysis at 1 h, 1.95 ug/ml [19]: 1.9%
selectivity ratio [20]: 1 to 32
selectivity ratio [21]: 2
MIC [22]: 7.8 µg/mL (≈ 17.3 µM)
MIC [23]: > 31.3 µg/mL
selectivity ratio [24]: 4
MIC [25]: 15.6 µg/mL (≈ 34.6 µM)
MIC [26]: 3.9 µg/mL (≈ 8.66 µM)
CC50 [27]: > 31 µg/mL
hemolysis at 1 h, 3.9 ug/ml [28]: 2.8%
hemolysis at 1 h, […] [29]: 1.2%
selectivity ratio [30]: 1 to 32
hemolysis at 1 h, 31.3 ug/ml [31]: 12.6%
selectivity ratio [32]: 4
selectivity ratio [33]: 8
selectivity ratio [34]: 4
selectivity ratio [35]: 4
MIC [36]: 7.8 µg/mL (≈ 17.3 µM)
Activity [37]: inactive
CC50 [38]: 16.4 µg/mL (≈ 36.4 µM)
Activity [39]: inactive
selectivity ratio [40]: 1
selectivity ratio [41]: 1 to 32
MIC [42]: 7.8 µg/mL (≈ 17.3 µM)
selectivity ratio [43]: 4
selectivity ratio [44]: 1 to 32
MIC [45]: 7.8 µg/mL (≈ 17.3 µM)
selectivity ratio [46]: 2
selectivity ratio [47]: 1 to 32
Activity [48]: inactive
selectivity ratio [49]: 1 to 32
IC50 [50]: > 30 µM
selectivity ratio [51]: 8
hemolysis at 1 h, 7.8 ug/ml [52]: 4.2%
